Assay results taken from patent US9982008B2, “Preparation and uses of obeticholic acid” (Intercept Pharmaceuticals, Inc., priority 2012, dated 2018).

Tests used:
[1] = 1 week
Method: Briefly, the solid was suspended in water at a low pH (HCl 0.1 mol/L) and left to equilibrate at 25° C. for one week under slightly mixing. The saturate solution was filtered and the concentration of the compound in solution measured by HPLC-ES-MS/MS.

[2] = rat, in vivo, po, 20 mg/kg
Method: The study described below was carried out to evaluate the plasma kinetics after a single oral administration and the efficiency of the intestinal absorption and the pharmacokinetics of solid non-crystalline and crystalline forms of obeticholic acid. The profiles of obeticholic acid plasma concentration vs time, the tmax, Cmax and AUC after administration of obeticholic acid Form 1 (non-crystalline) or Form F were compared (see FIGS. 37-38)
Obeticholic acid Form 1 (non-crystalline) and Form F were administered to rats and in each animal blood was collected at different period of times for at least 3 hours. Six animals were studied for each form of obeticholic acid.
The formulation was prepared as a suspension in water at pH 4. The study model is adult male Sprague Dawley rats about 225 to about 250 g (Harlan Laboratories). Six animals were used per dosage route. The dosage is PO 20 mg/kg/5 mL. The animals were fasted overnight before treatment with the formulation of obeticholic acid. Oral administration was performed by gastric gavage.
On day one animals were be fitted with a cannula implanted in the left jugular vein (SOP VIVO/SAF6), anaesthesia was obtained by Isoflurane. The experiment was started after one day of recovery from surgery. About 500 μL of blood (250 μL of plasma) was taken via cannula in a heparinised syringe (Na Heparin) and collected immediately in microtubes in an ice/water bath. Within 1 hour, samples were centrifuged at 10000×g for 5 minutes at 4° C. Plasma was immediately transferred in microtubes and stored at −20° C. Samples of blood were collected 30 minutes, 1 hour, 1.3 hour, 2 hours, and 3 hour post-dose. Plasma samples were analyzed using the HPLC-ES/MS/MS quantitative method. Pharmacokinetics study was preformed using non-compartmental methods.

[3] = Log P determination by potentiometric titration (octanol/ISA water); assay type: physicochemical; conditions: potentiometry
Method: Data were collected by potentiometric titration on a Sirius GlpKa instrument using three ratios of octanol: ionic-strength adjusted (ISA) water to generate Log P, Log Pion, and Log D values. The data were refined using Refinement Pro software v1.0. Prediction of Log P values was made using ACD v9 and Syracuse KOWWIN v1.67 software.
Log P was predicted using ACD software then measured by potentiometry. Three titrations were performed at three different octanol/ISA water ratios, giving the difference curve plotted in FIG. 30. The black curve is the pure aqueous pKa titration and the 3 colored curves correspond to the three octanol/ISA water ratios. The shifts in pKa enable determination of Log P.
Log D is the distribution coefficient, representing the combined lipophilicity of all species present at a specific pH. Log P is a compound constant, which corresponds to the partition coefficient of the pure neutral species, while Log Pion is that of the pure ionized species. Log P and Log Pion can be determined from the lipophilicity curve, as the intersection of the Y axis with respectively the tangent at the start of the pH scale (when the molecule is purely in its neutral form) and the tangent at the end of the pH scale (when the molecule is completely ionized).

[4] = pKa determination by potentiometry (methanol/water, Yasuda-Shedlovsky extrapolation); assay type: physicochemical; conditions: 25° C., potentiometry with methanol as cosolvent, extrapolated to 0% co-solvent (Yasuda-Shedlovsky)
Method: pKa determination data were collected on a Sirius GlpKa instrument with a D-PAS attachment. Measurements were made at 25° C. in aqueous solution by UV and in methanol water mixtures by potentiometry. The titration media was ionic-strength adjusted (ISA) with 0.15 M KCl (aq). The values found in the methanol water mixtures were corrected to 0% co-solvent via a Yasuda-Shedlovsky extrapolation. The data were refined using Refinement Pro software v1.0. Prediction of pKa values was made using ACD pKa prediction software v9.
The pKa of obeticholic acid was measured by potentiometry using methanol as a cosolvent (FIG. 27) and extrapolated to 0% co-solvent using a Yasuda-Shedlovsky extrapolation (FIG. 28). The pKa enables determination of the proportion of the neutral and the ionized form of the compound at a given pH.

[5] = Gravimetric Vapor Sorption (GVS); assay type: physicochemical
Method: Sorption isotherms were obtained using a SMS DVS Intrinsic moisture sorption analyzer, controlled by DVS Intrinsic Control software v 1.0.0.30. The sample temperature was maintained at 25° C. by the instrument controls. The humidity was controlled by mixing streams of dry and wet nitrogen, with a total flow rate of 200 ml·min^−1. The relative humidity was measured by a calibrated Rotronic probe (dynamic range of 1.0-100% RH), located near the sample. The weight change, (mass relaxation) of the sample as a function of % RH (relative humidity) was constantly monitored by the microbalance (accuracy±0.005 mg).
5 to 20 mg of sample was placed in a tared mesh stainless steel basket under ambient conditions. The sample was loaded and unloaded at 40% RH and 25° C. (typical room conditions). A moisture sorption isotherm was performed as outlined below (2 scans giving 1 complete cycle). The standard isotherm was performed at 25° C. at 10% RH intervals over a 0.5-90% RH range. Data analysis was undertaken in Microsoft Excel using DVS Analysis Suite v6.0.0.7. Method Parameters for SMS DVS Intrinsic Experiments are as follows:
The sample was recovered after completion of the isotherm and re-analyzed by XRPD.
Sorption isotherms were obtained using a SMS DVS Intrinsic moisture sorption analyzer, controlled by SMS Analysis Suite software. The sample temperature was maintained at 25° C. by the instrument controls. The humidity was controlled by mixing streams of dry and wet nitrogen, with a total flow rate of 200 ml·min^−1. The relative humidity was measured by a calibrated Rotronic probe (dynamic range of 1.0-100% RH), located near the sample. The weight change, (mass relaxation) of the sample as a function of % RH was constantly monitored by the microbalance (accuracy±0.005 mg).
Typically 5-20 mg of sample was placed in a tared mesh stainless steel basket under ambient conditions. The sample was loaded and unloaded at 40% RH and 25° C. (typical room conditions). A moisture sorption isotherm was performed as outlined below (2 scans giving 1 complete cycle). […]

Compound	Water solubility [1] [µM]	Plasma concentration of tauro conjugate, crystalline form compared with Form 1 [2]	Plasma obeticholic acid concentration after 3 hours relative to Cmax [2]	Time after which Cmax is achieved ([2]; pH 4) [h]	Measured LogD7.4 ([3]; octanol/ISA water, pH 7.4)	Measured LogPion ([3]; octanol/ISA water, pure ionized species)	Measured LogP ([3]; three octanol/ISA water ratios)	Measured pKa [4]	GVS water uptake / weight change ([5]; 25° C., 0 to 90% RH) [%]	Hygroscopicity (GVS) ([5]; 25° C., 0 to 90% RH, in words)	XRPD analysis after GVS ([5]; sample recovered after isotherm)	Cmax, Form 1 compared with Form F [2]	Time of early plasma concentration peak [2] [min]	Time of second plasma concentration peak [2] [h]
CC[C@H]1[C@@H](O)[C@@H]2[C@H](CC[C@]3(C)[C@@H]([C@H](C)CCC(=O)O)CC[C@@H]23)[C@@]2(C)CC[C@@H](O)C[C@@H]12 [Form F, obeticholic acid]	9.1	higher concentration	almost half of the Cmax	1.5	–	–	–	–	–	–	–	–	–	–
obeticholic acid [Form 1]	–	–	–	–	2.98	1.58	5.54	4.82	3.8	moderately hygroscopic	still non-crystalline	lower	30	2
